Common to all, as to type: biochemical
For one experiment, the target named is T1, JAK3 (Homo sapiens, UniProt P52333).
T1 construct: made in house; host or cells: SF9 insect cells (baculovirus)
Briefly: JAK3 inhibition (Table 4). Particulars: read-out: JAK3 Ki.

The next experiment addresses T2, JAK1 (Homo sapiens, UniProt P23458).
T2 construct: made in house; host or cells: SF9 insect cells (baculovirus)
Briefly: JAK1 inhibition (Table 4). Particulars: read-out: JAK1 Ki.

For a further experiment, the target named is T3, JAK2 (Homo sapiens, UniProt O60674).
T3 construct: made in house; host or cells: SF9 insect cells (baculovirus)
Briefly: JAK2 inhibition (Table 4). Particulars: read-out: JAK2 Ki.

A further experiment has as its target T4, TYK2 (Homo sapiens, UniProt P29597).
T4 construct: made in house; host or cells: SF9 insect cells (baculovirus)
T4 sequence (P29597 873-1187): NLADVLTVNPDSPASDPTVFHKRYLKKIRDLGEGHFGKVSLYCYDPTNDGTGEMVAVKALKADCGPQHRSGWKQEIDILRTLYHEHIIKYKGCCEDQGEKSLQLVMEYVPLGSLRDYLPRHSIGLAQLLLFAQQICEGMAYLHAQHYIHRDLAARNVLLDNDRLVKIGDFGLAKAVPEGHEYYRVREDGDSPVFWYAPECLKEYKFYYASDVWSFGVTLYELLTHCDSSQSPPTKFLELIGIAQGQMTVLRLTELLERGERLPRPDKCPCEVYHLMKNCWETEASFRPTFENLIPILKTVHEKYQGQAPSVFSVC
Briefly: TYK2 inhibition (Table 4).

Ki data for 24 compounds are collected here from patent publication US8461328B2, “Tricyclic heterocyclic compounds, compositions and methods of use thereof” (Genentech, Inc., priority 2010, dated 2013).

T3 sequence (O60674 812-1132): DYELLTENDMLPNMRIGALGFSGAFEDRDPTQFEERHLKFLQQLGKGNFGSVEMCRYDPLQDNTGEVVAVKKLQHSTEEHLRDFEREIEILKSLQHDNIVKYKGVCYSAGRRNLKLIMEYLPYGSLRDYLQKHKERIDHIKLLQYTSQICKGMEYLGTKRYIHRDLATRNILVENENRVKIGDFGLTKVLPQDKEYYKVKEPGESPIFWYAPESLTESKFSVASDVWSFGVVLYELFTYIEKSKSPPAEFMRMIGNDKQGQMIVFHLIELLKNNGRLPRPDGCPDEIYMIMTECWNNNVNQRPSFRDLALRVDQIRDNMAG
T1 sequence (P52333 783-1124): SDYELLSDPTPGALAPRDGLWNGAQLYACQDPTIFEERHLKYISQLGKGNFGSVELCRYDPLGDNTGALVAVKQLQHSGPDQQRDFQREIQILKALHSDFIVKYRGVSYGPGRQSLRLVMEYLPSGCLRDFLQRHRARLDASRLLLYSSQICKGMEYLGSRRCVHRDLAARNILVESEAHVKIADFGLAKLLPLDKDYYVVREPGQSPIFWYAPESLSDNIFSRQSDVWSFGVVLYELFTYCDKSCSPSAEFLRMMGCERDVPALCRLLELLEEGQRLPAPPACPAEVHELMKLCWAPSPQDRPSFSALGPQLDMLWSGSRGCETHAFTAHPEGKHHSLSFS
T2 sequence (P23458 852-1154): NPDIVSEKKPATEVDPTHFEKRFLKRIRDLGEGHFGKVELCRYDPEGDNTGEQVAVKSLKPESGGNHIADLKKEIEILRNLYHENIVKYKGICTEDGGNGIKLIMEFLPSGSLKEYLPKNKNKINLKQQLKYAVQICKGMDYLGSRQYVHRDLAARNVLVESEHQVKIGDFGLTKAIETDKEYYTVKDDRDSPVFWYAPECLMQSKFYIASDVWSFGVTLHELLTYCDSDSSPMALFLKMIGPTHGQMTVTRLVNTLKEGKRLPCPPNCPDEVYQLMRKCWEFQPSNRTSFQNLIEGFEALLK

As a reminder, the Ki is the dissociation constant of the complex between target and ligand, obtained from inhibition or displacement. Turning to `CCN1CCC(n2c(CCNC(C)=O)nc3cnc4[nH]ccc4c32)C(F)(F)C1` (stereo not drawn) [Example 807, N-{2-[1-(1-Ethyl-3,3-difluoro-piperidin-4-yl)-1,6-dihydro-1,3,5,6-tetraaza-as-indacen-2-yl]-ethyl}-acetamide], the Ki came out at 15.9 nM on JAK3, 3.78 nM on JAK1, 34.7 nM on JAK2 and 257 nM on TYK2.

Consider `Cc1cc(CN2CCC(n3c([C@@H](C)O)nc4cnc5[nH]ccc5c43)CC2)n(C)n1` [Example 821, (R)-1-{1-[1-(2,5-Dimethyl-2H-pyrazol-3-ylmethyl)-piperidin-4-yl]-1,6-dihydro-1,3,5,6-tetraaza-as-indacen-2-yl}-ethanol], for which the Ki was found to be 55.3 nM at JAK3, 17.7 nM on JAK1, 125 nM at JAK2 and 473 nM on TYK2.

For the compound `COc1ccc(CN2CCC[C@@H](n3cnc4cnc5[nH]ccc5c43)C2)cc1` [Example 46, 1-[(R)-1-(4-Methoxy-benzyl)-piperidin-3-yl]-1,6-dihydro-1,3,5,6-tetraaza-as-indacene], the Ki on JAK3 came out at 414 nM; at JAK1 it was 72.4 nM; on JAK2 it was 160 nM; on TYK2, 913 nM.

`C[C@@H](O)c1nc2cnc3[nH]ccc3c2n1C1CCN(Cc2ncco2)CC1` [Example 923, (R)-1-[1-(1-Oxazol-2-ylmethyl-piperidin-4-yl)-1,6-dihydro-1,3,5,6-tetraaza-as-indacen-2-yl]-ethanol]: the Ki at JAK3 was 37.4 nM; on JAK1 it was 17.1 nM; on JAK2, 150 nM; at TYK2 it was 363 nM.

For `CN(C)C(=O)CNC(=O)Cc1nc2cnc3[nH]ccc3c2n1C1CCCOC1` (racemic) [Example 970, N-Dimethylcarbamoylmethyl-2-[1-(tetrahydro-pyran-3-yl)-1,6-dihydro-1,3,5,6-tetraaza-as-indacen-2-yl]-acetamide], the Ki at JAK3 turned out to be 206 nM; at JAK1, 34.3 nM; on JAK2 it was 124 nM; on TYK2, 245 nM.

For the compound `CC(O)c1nc2cnc3[nH]ccc3c2n1CC1CCCO1` (stereo not drawn) [Example 699, 1-[1-(Tetrahydro-furan-2-ylmethyl)-1,6-dihydro-1,2,3,5,6-tetraaza-as-indacen-2-yl]-ethanol], the Ki stood at 280 nM on JAK3, 235 nM at JAK1, 131 nM on JAK2 and 1070 nM at TYK2.

Consider `CC(C)(C#N)C(=O)N1CC[C@@H](n2cnc3cnc4[nH]ccc4c32)C1` [Example 186, 2,2-Dimethyl-3-oxo-3-[(R)-3-(6H-1,2,3,5,6-tetraaza-as-indacen-1-yl)-pyrrolidin-1-yl]-propionitrile], for which the Ki came out at 3170 nM on JAK3, 220 nM at JAK1, 167 nM at JAK2 and 1500 nM on TYK2.

For the compound `CCN1CC[C@@H](n2c(C)nc3cnc4[nH]ccc4c32)[C@@H](F)C1` [Example 521, 1-((3S,4R)-1-Ethyl-3-fluoro-piperidin-4-yl)-2-methyl-1,6-dihydro-1,3,5,6-tetraaza-as-indacene], the Ki at JAK3 came to 25.4 nM; at JAK1 it was 3.48 nM; at JAK2, 7.04 nM; at TYK2, 48.8 nM.

In the case of `N#CCCN1CCC(n2c(C3CCOCC3)nc3cnc4[nH]ccc4c32)CC1` [Example 385, 3-{4-[2-(Tetrahydro-pyran-4-yl)-6H-1,3,5,6-tetraaza-as-indacen-1-yl]-piperidin-1-yl}-propionitrile], the Ki at JAK3 was found to be 15.5 nM; at JAK1, 51.3 nM; on JAK2 it was 68.5 nM; at TYK2 it was 1290 nM.

For `C[C@@H](O)c1nc2cnc3[nH]ccc3c2n1C1CCC(n2cncn2)CC1` (stereo partly drawn) [Example 779, (R)-1-[1-(4-[1,2,4]triazol-1-yl-cyclohexyl)-1,6-dihydro-1,3,5,6-tetraaza-as-indacen-2-yl]-ethanol], the Ki turned out to be 233 nM on JAK3, 4.87 nM at JAK1, 73.8 nM on JAK2 and 39 nM at TYK2.

In the case of `N#CCCN1CCC(n2c(CCn3cncn3)nc3cnc4[nH]ccc4c32)CC1` [Example 386, 3-{4-[2-(2-[1,2,4]Triazol-1-yl-ethyl)-6H-1,3,5,6-tetraaza-as-indacen-1-yl]-piperidin-1-yl}-propionitrile], the inhibitory constant (Ki) came to 79.2 nM at JAK3, 17.8 nM on JAK1, 64.3 nM at JAK2 and 319 nM at TYK2.

On to `N#CCC(=O)NC1CCC(n2cnc3cnc4[nH]ccc4c32)C1` (racemic) [Example 629, Racemic trans 2-cyano-N-[3-(6H-1,2,3,5,6-tetraaza-as-indacen-1-yl)-cyclopentyl]-acetamide], for which the inhibition constant (Ki) at JAK3 came to 11 nM; on JAK1, 1.36 nM; at JAK2, 4.99 nM; on TYK2, 32 nM.

Take `COC(=O)NC1CCC(n2nnc3cnc4[nH]ccc4c32)C1` (racemic) [Example 621, Racemic trans [3-(6H-1,2,3,5,6-Pentaaza-as-indacen-1-yl)-cyclopentyl]-carbamic acid methyl ester]: the Ki on JAK3 came out at 148 nM; at JAK1, 8.78 nM; at JAK2, 23.2 nM; on TYK2 it was 124 nM.

In the case of `CC1CNCCC1n1cnc2cnc3[nH]ccc3c21` (racemic) [Example 312, 1-(3-Methyl-piperidin-4-yl)-1,6-dihydro-1,3,5,6-tetraaza-as-indacene], the inhibition constant Ki on JAK3 turned out to be 626 nM; at JAK1, 47.6 nM; at JAK2, 415 nM; on TYK2, 1050 nM.

On to `CN(CC(F)F)C(=O)NC1CCC(n2cnc3cnc4[nH]ccc4c32)CC1` (stereo not drawn) [Example 747, 1-(2,2-difluoro-ethyl)-1-methyl-3-[4-(6H-1,3,5,6-tetraaza-as-indacen-1-yl)-cyclohexyl]-urea], for which the inhibitory constant (Ki) amounted to 52.5 nM at JAK3, 4.22 nM on JAK1, 11.7 nM on JAK2 and 72.7 nM at TYK2.

As to `C[C@@H](O)c1nc2cnc3[nH]ccc3c2n1C1CCN(C2COC2)CC1` [Example 832, (R)-1-[1-(1-Oxetan-3-yl-piperidin-4-yl)-1,6-dihydro-1,3,5,6-tetraaza-as-indacen-2-yl]-ethanol], the Ki on JAK3 was determined as 516 nM; at JAK1, 55.5 nM; on JAK2 it was 428 nM; at TYK2, 493 nM.

Consider `N#CCCN1CCC(n2c(COCC3CC3)nc3cnc4[nH]ccc4c32)CC1` [Example 839, 3-[4-(2-Cyclopropylmethoxymethyl-6H-1,3,5,6-tetraaza-as-indacen-1-yl)-piperidin-1-yl]-propionitrile], for which the Ki at JAK3 was 73.5 nM; at JAK1 it was 61.7 nM; at JAK2, 106 nM; on TYK2, 595 nM.

Consider `Cc1nc2cnc3[nH]ccc3c2n1C1CCN(Cc2cccnc2)CC1` [Example 283, 2-Methyl-1-(1-pyridin-3-ylmethyl-piperidin-4-yl)-1,6-dihydro-1,3,5,6-tetraaza-as-indacene], for which the Ki at JAK3 stood at 2.63 nM; at JAK1 it was 0.84 nM; on JAK2 it was 1.93 nM; on TYK2, 50.2 nM.

For the compound `CC(C)(C)OC(=O)N1CCC(N[C@H]2CC[C@H](n3cnc4cnc5[nH]ccc5c43)CC2)CC1` [Example 558, trans 4-[4-(6H-1,3,5,6-Tetraaza-as-indacen-1-yl)-cyclohexylamino]-piperidine-1-carboxylic acid tert-butyl ester], the Ki on JAK3 came out at 110 nM; on JAK1, 6.94 nM; on JAK2, 60.9 nM; on TYK2, 39.2 nM.

For the compound `N#CCC(=O)N1CCCCC(n2cnc3cnc4[nH]ccc4c32)C1` (racemic) [Example 988, 3-Oxo-3-[3-(6H-1,3,5,6-tetraaza-as-indacen-1-yl)-azepan-1-yl]-propionitrile], the Ki on JAK3 was found to be 9.33 nM; at JAK1, 4.19 nM; on JAK2, 6.23 nM; at TYK2 it was 29.1 nM.

`OC1CCCC(n2cnc3cnc4[nH]ccc4c32)C1` (single isomer, unassigned) [Example 561, 3-(6H-1,3,5,6-Tetraaza-as-indacen-1-yl)-cyclohexanol]: the Ki came out at 14.5 nM at JAK3, 7.29 nM at JAK1, 17.9 nM at JAK2 and 24.5 nM at TYK2.

Take `Cc1nc2cnc3[nH]ccc3c2n1C(C)CCO` (racemic) [Example 416, 3-(2-Methyl-6H-1,3,5,6-tetraaza-as-indacen-1-yl)-butan-1-ol]: the Ki at JAK3 came to 48.8 nM; on JAK1, 33.6 nM; at JAK2 it was 126 nM; on TYK2, 339 nM.

Regarding `C[C@@H](O)c1nc2cnc3[nH]ccc3c2n1C1CCN(Cc2ccn[nH]2)CC1` [Example 896, (R)-1-{1-[1-(2H-Pyrazol-3-ylmethyl)-piperidin-4-yl]-1,6-dihydro-1,3,5,6-tetraaza-as-indacen-2-yl}-ethanol], the Ki at JAK3 was 6.89 nM; at JAK1, 1.72 nM; at JAK2 it was 21.4 nM; on TYK2 it was 56.7 nM.

As to `N#CCC(=O)N1CCC(F)C(n2nnc3cnc4[nH]ccc4c32)C1` (racemic) [Example 519, 3-[4-Fluoro-3-(6H-1,2,3,5,6-pentaaza-as-indacen-1-yl)-piperidin-1-yl]-3-oxo-propionitrile], the Ki was determined as 33 nM at JAK3, 1.74 nM on JAK1, 4.92 nM on JAK2 and 24.5 nM at TYK2.
